From patent US6692880B2, “Electrophotographic toner with stable triboelectric properties” (Heidelberger Druckmaschinen AG, priority 2001, dated 2004)

Columns and labels:
[1] = Charge per mass of developers after exercise periods, MECCA device; format: physicochemical; details: clear polyester toner; for Fresh Developer 10 min exercise (charge values) / Fresh developer 2 min shake (charge values) / Rebuilt developer 2 min shake (charge values) / Rebuilt developer 10 min exercise (charge values): Binder C resin
[2] = obtained or extrapolated from tables in Morrison and Boyd; cited from earlier work
[3] = pKa values measured by titrimetry; format: physicochemical; details: (a) values measured by titrimetry; read-out: pKa 1
From the text: Any acidic material having a pKa in the range of from about 2 to about 8 can be used as the first charge control agent. Acidic materials with pKa values of from 3 to 7 are particularly preferred. Acidic materials preferably contain a labile proton, such as a carboxylic, phenolic or sulfonic acid. More broadly an acid also includes compounds within the definition as proposed by G. N. Lewis, that is an acid is any material capable of accepting an electron pair from a donor molecule. The term pKa is defined as
where Ka is an inherent molecular property of an acidic compound and is called the acid dissociation constant. Ka is defined by the following equation; [formula]
In a practical sense the lower the pKa value the stronger the acid. Acids useful in this invention may have more than one acid function per molecule such as di- and tri-carboxylic or di- and tri-sulfonic acids. Further, multiple types of acid functional groups may be present in the useful molecule for example as in p-carboxybenzenesulfonic acid. One skilled in the art can readily propose other such acids based on the foregoing definitions.

[4] = 0.2 pph added acid, LLT-101 resin, 2 pph Bontron E-84
[5] = 0.2 pph adipic acid added, 0 pph Bontron E-84, Binder C
[6] = 0.2 pph adipic acid added, 2 pph Bontron E-84, Binder C
[7] = 1 pph added acid, LLT-101 resin, 2 pph Bontron E-84
[8] = 1 pph adipic acid added, 0 pph Bontron E-84, Binder C
[9] = 1 pph adipic acid added, 2 pph Bontron E-84, Binder C
[10] = 5 pph added acid, LLT-101 resin, 2 pph Bontron E-84
[11] = 5 pph adipic acid added, 0 pph Bontron E-84, Binder C
[12] = 5 pph adipic acid added, 2 pph Bontron E-84, Binder C
[13] = 0.2 pph added acid, 2 pph Bontron E-84
[14] = 1 pph added acid, 2 pph Bontron E-84
[15] = 5 pph added acid, 2 pph Bontron E-84

SMILES: O=C(O)CCCCC(=O)O [Adipic acid]
- Fresh Developer 10 min exercise (charge per mass) [1, 4]: −63.2 μC/g
- Fresh developer 2 min shake (charge per mass) [1, 4]: −25.9 μC/g
- Rebuilt developer 2 min shake (charge per mass) [1, 4]: −56.9 μC/g
- Rebuilt developer 10 min exercise (charge per mass) [1, 4]: −57.7 μC/g
- Fresh Developer 10 min exercise (charge per mass) [1, 5]: −30.1 μC/g
- Fresh developer 2 min shake (charge per mass) [1, 5]: −10.0 μC/g
- Rebuilt developer 2 min shake (charge per mass) [1, 5]: −7.1 μC/g
- Rebuilt developer 10 min exercise (charge per mass) [1, 5]: −17.3 μC/g
- Fresh Developer 10 min exercise (charge per mass) [1, 6]: −64.2 μC/g
- Fresh developer 2 min shake (charge per mass) [1, 6]: −29.6 μC/g
- Rebuilt developer 2 min shake (charge per mass) [1, 6]: −39.4 μC/g
- Rebuilt developer 10 min exercise (charge per mass) [1, 6]: −49.6 μC/g
- Fresh Developer 10 min exercise (charge per mass) [1, 7]: −40.9 μC/g
- Fresh developer 2 min shake (charge per mass) [1, 7]: −23.7 μC/g
- Rebuilt developer 2 min shake (charge per mass) [1, 7]: −27.1 μC/g
- Rebuilt developer 10 min exercise (charge per mass) [1, 7]: −28.8 μC/g
- Fresh Developer 10 min exercise (charge per mass) [1, 8]: −27.6 μC/g
- Fresh developer 2 min shake (charge per mass) [1, 8]: −10.1 μC/g
- Rebuilt developer 2 min shake (charge per mass) [1, 8]: −4.6 μC/g
- Rebuilt developer 10 min exercise (charge per mass) [1, 8]: −12.5 μC/g
- Fresh Developer 10 min exercise (charge per mass) [1, 9]: −41.8 μC/g
- Fresh developer 2 min shake (charge per mass) [1, 9]: −30.4 μC/g
- Rebuilt developer 2 min shake (charge per mass) [1, 9]: −17.1 μC/g
- Rebuilt developer 10 min exercise (charge per mass) [1, 9]: −32.3 μC/g
- Fresh Developer 10 min exercise (charge per mass) [1, 10]: −25.8 μC/g
- Fresh developer 2 min shake (charge per mass) [1, 10]: −18.6 μC/g
- Rebuilt developer 2 min shake (charge per mass) [1, 10]: −17.9 μC/g
- Rebuilt developer 10 min exercise (charge per mass) [1, 10]: −24.5 μC/g
- Fresh Developer 10 min exercise (charge per mass) [1, 11]: −28.4 μC/g
- Fresh developer 2 min shake (charge per mass) [1, 11]: −10.4 μC/g
- Rebuilt developer 2 min shake (charge per mass) [1, 11]: −5.3 μC/g
- Rebuilt developer 10 min exercise (charge per mass) [1, 11]: −11.6 μC/g
- Fresh Developer 10 min exercise (charge per mass) [1, 12]: −35.7 μC/g
- Fresh developer 2 min shake (charge per mass) [1, 12]: −18.5 μC/g
- Rebuilt developer 2 min shake (charge per mass) [1, 12]: −11.2 μC/g
- Rebuilt developer 10 min exercise (charge per mass) [1, 12]: −29.2 μC/g
- pKa 1 [2]: 4.5

SMILES: CC1=NN(c2ccccc2)C(=O)C1 [MPP, 2,4-dihydro-5-methyl-2-phenyl-3H-pyrazol-3-one]
- pKa [3]: 6.6

SMILES: O=C(O)CCCC(=O)O [Glutaric acid]
- Fresh Developer 10 min exercise (charge values) [1, 13]: −66.2 μC/g
- Fresh developer 2 min shake (charge values) [1, 13]: −26.5 μC/g
- Rebuilt developer 2 min shake (charge values) [1, 13]: −45.7 μC/g
- Rebuilt developer 10 min exercise (charge values) [1, 13]: −58.1 μC/g
- Fresh Developer 10 min exercise (charge values) [1, 14]: −42.5 μC/g
- Fresh developer 2 min shake (charge values) [1, 14]: −16.6 μC/g
- Rebuilt developer 2 min shake (charge values) [1, 14]: −15.6 μC/g
- Rebuilt developer 10 min exercise (charge values) [1, 14]: −30.1 μC/g
- Fresh Developer 10 min exercise (charge values) [1, 15]: −11.8 μC/g
- Fresh developer 2 min shake (charge values) [1, 15]: −6.2 μC/g
- Rebuilt developer 2 min shake (charge values) [1, 15]: −4.5 μC/g
- Rebuilt developer 10 min exercise (charge values) [1, 15]: −13.3 μC/g
- pKa 2 [2]: 5.4

SMILES: CCOC(=O)/C=C/C(=O)O [fumaric acid monoethyl ester]
- pKa [3]: 3.5
